Experimental data published in US20210045385A1, “PYRIDAZINONE-SUBSTITUTED KETOXIMES AS HERBICIDES” (FMC Corporation, priority 2018, published 2021).

Legend:
Assay type in all cases: in vivo
[1] = system: wheat (Triticum aestivum); assay: Test C postemergence, visual plant response rating
Outline: (§1)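 Compounds in a non-phytotoxic solvent with surfactant were applied as a directed soil spray preemergence or to 2–10 cm, one- to two-leaf plants postemergence, in loam–sand soil. After about 10 d in a greenhouse, injury was visually rated against untreated controls on a 0–100 scale (100 = complete control).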

[2] = system: ragweed (common ragweed, Ambrosia artemisiifolia); assay: Test C postemergence, visual plant response rating
Outline: as §1

[3] = system: blackgrass (Alopecurus myosuroides); assay: Test C postemergence, visual plant response rating
Outline: as §1

[4] = system: pigweed (Amaranthus retroflexus); assay: Test C postemergence, visual plant response rating
Outline: as §1

[5] = system: Italian ryegrass (Lolium mutiflorum); assay: Test C postemergence, visual plant response rating
Outline: as §1

[6] = system: barnyardgrass (Echinochloa crus-galli); assay: Test C postemergence, visual plant response rating
Outline: as §1

[7] = system: foxtail, giant (giant foxtail, Setaria faberi); assay: Test C postemergence, visual plant response rating
Outline: as §1

corn (Zea mays) = assay: Test C postemergence, visual plant response rating
Outline: as §1

kochia (Bassia scoparia) [8] = assay: Test C postemergence, visual plant response rating
Outline: as §1

[9] = system: galium (catchweed bedstraw, Galium aparine); assay: Test C postemergence, visual plant response rating
Outline: as §1

[10] = system: ragweed (common ragweed, Ambrosia artemisiifolia); assay: Test C preemergence, visual plant response rating; conditions: Test C, 0 is no effect, 100 is complete control
Outline: as §1

[11] = system: pigweed (Amaranthus retroflexus); assay: Test C preemergence, visual plant response rating; conditions: Test C, 0 is no effect, 100 is complete control
Outline: as §1

[12] = system: Italian ryegrass (Lolium mutiflorum); assay: Test C preemergence, visual plant response rating; conditions: Test C, 0 is no effect, 100 is complete control
Outline: as §1

[13] = system: barnyardgrass (Echinochloa crus-galli); assay: Test C preemergence, visual plant response rating; conditions: Test C, 0 is no effect, 100 is complete control
Outline: as §1

[14] = system: foxtail, giant (giant foxtail, Setaria faberi); assay: Test C preemergence, visual plant response rating; conditions: Test C, 0 is no effect, 100 is complete control
Outline: as §1

kochia (Bassia scoparia) [15] = assay: Test C preemergence, visual plant response rating; conditions: Test C, 0 is no effect, 100 is complete control
Outline: as §1

[16] = system: sedge umbrella (small-flower umbrella sedge, Cyperus difformis); assay: Test D flooded paddy test, visual plant response rating; conditions: 250 g ai/ha, scale 0 to 100 (0 no effect, 100 complete control), 13 to 15 d
Outline: (§2)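 Plants were grown to the 2-leaf stage, pots flooded to 3 cm above soil, and compound applied directly into the paddy water, with the depth held throughout. After 13 to 15 d in a greenhouse, response was rated visually against untreated controls on a 0–100 scale (0 no effect, 100 complete control).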

[17] = system: duck salad (Heteranthera limosa); assay: as above; conditions: 250 g ai/ha, scale 0 to 100 (0 no effect, 100 complete control), 13 to 15 d
Outline: as §2

rice (Oryza sativa) = assay: as above; conditions: 250 g ai/ha, scale 0 to 100 (0 no effect, 100 complete control), 13 to 15 d
Outline: as §2

[18] = system: barnyardgrass (Echinochloa crus-galli); assay: as above; conditions: 250 g ai/ha, scale 0 to 100 (0 no effect, 100 complete control), 13 to 15 d
Outline: as §2

[19] = Test C, postemergence, 125 g ai/ha

SMILES | Wheat plant response rating (0 to 100 scale) ([1]; Postemergence, 31 g ai/ha) | Wheat plant response rating (0 to 100 scale) [1, 19] | Ragweed plant response rating (0 to 100 scale) ([2]; Postemergence, 31 g ai/ha) | Ragweed plant response rating (0 to 100 scale) [2, 19] | Blackgrass plant response rating (0 to 100 scale) ([3]; Postemergence, 31 g ai/ha) | Blackgrass plant response rating (0 to 100 scale) [3, 19] | Pigweed plant response rating (0 to 100 scale) ([4]; Postemergence, 31 g ai/ha) | Pigweed plant response rating (0 to 100 scale) [4, 19] | Ryegrass, Italian plant response rating (0 to 100 scale) ([5]; Postemergence, 31 g ai/ha) | Ryegrass, Italian plant response rating (0 to 100 scale) [5, 19] | Barnyardgrass plant response rating (0 to 100 scale) ([6]; Postemergence, 31 g ai/ha) | Barnyardgrass plant response rating (0 to 100 scale) [6, 19] | Foxtail, Giant plant response rating (0 to 100 scale) ([7]; Postemergence, 31 g ai/ha) | Foxtail, Giant plant response rating (0 to 100 scale) [7, 19] | Corn plant response rating (0 to 100 scale) (corn (Zea mays); Postemergence, 31 g ai/ha) | Corn plant response rating (0 to 100 scale) (corn (Zea mays); [19]) | Kochia plant response rating (0 to 100 scale) (kochia (Bassia scoparia) [8]; Postemergence, 31 g ai/ha) | Kochia plant response rating (0 to 100 scale) (kochia (Bassia scoparia) [8]; [19]) | Galium plant response rating (0 to 100 scale) ([9]; Postemergence, 31 g ai/ha) | Galium plant response rating (0 to 100 scale) [9, 19] | also measured
C#CCO/N=C(/c1ccc(F)c(Cl)c1)c1c(O)c(C)nn(C)c1=O [Compound 229] | 30 | 60 | 10 | 20 | 50 | 0 | 20 | 50 | 40 | 70 | 0 | 30 | 10 | 40 | 0 | 40 | 0 | 0 | 60 | 80 | Ragweed plant response rating (0 to 100 scale) ([10]; 31 g ai/ha): 0; Ragweed plant response rating (0 to 100 scale) ([10]; 125 g ai/ha): 0; Pigweed plant response rating (0 to 100 scale) ([11]; 31 g ai/ha): 10; Pigweed plant response rating (0 to 100 scale) ([11]; 125 g ai/ha): 40; Ryegrass, Italian plant response rating (0 to 100 scale) ([12]; 31 g ai/ha): 20; Ryegrass, Italian plant response rating (0 to 100 scale) ([12]; 125 g ai/ha): 90; Barnyardgrass plant response rating (0 to 100 scale) ([13]; 31 g ai/ha): 0; Barnyardgrass plant response rating (0 to 100 scale) ([13]; 125 g ai/ha): 30; Foxtail, Giant plant response rating (0 to 100 scale) ([14]; 31 g ai/ha): 10; Foxtail, Giant plant response rating (0 to 100 scale) ([14]; 125 g ai/ha): 30; Kochia plant response rating (0 to 100 scale) (kochia (Bassia scoparia) [15]; 31 g ai/ha): 0; Kochia plant response rating (0 to 100 scale) (kochia (Bassia scoparia) [15]; 125 g ai/ha): 0; Plant response rating, Sedge, Umbrella (Flood) [16]: 0; Plant response rating, Ducksalad (Flood) [17]: 0; Plant response rating, Rice (Flood) (rice (Oryza sativa)): 0; Plant response rating, Barnyardgrass (Flood) [18]: 0
C#CCO/N=C(\c1ccc(F)c(Cl)c1)c1c(O)c(C)nn(C)c1=O [Compound 230] | 0 | 60 | 10 | 20 | 0 | 10 | 0 | 20 | 0 | 40 | 0 | 20 | 10 | 30 | 0 | 0 | 0 | 0 | 50 | 70 | Ragweed plant response rating (0 to 100 scale) ([10]; 31 g ai/ha): 0; Ragweed plant response rating (0 to 100 scale) ([10]; 125 g ai/ha): 0; Pigweed plant response rating (0 to 100 scale) ([11]; 31 g ai/ha): 10; Pigweed plant response rating (0 to 100 scale) ([11]; 125 g ai/ha): 30; Ryegrass, Italian plant response rating (0 to 100 scale) ([12]; 31 g ai/ha): 0; Ryegrass, Italian plant response rating (0 to 100 scale) ([12]; 125 g ai/ha): 10; Barnyardgrass plant response rating (0 to 100 scale) ([13]; 31 g ai/ha): 0; Barnyardgrass plant response rating (0 to 100 scale) ([13]; 125 g ai/ha): 0; Foxtail, Giant plant response rating (0 to 100 scale) ([14]; 31 g ai/ha): 0; Foxtail, Giant plant response rating (0 to 100 scale) ([14]; 125 g ai/ha): 30; Kochia plant response rating (0 to 100 scale) (kochia (Bassia scoparia) [15]; 31 g ai/ha): 0; Kochia plant response rating (0 to 100 scale) (kochia (Bassia scoparia) [15]; 125 g ai/ha): 0; Plant response rating, Sedge, Umbrella (Flood) [16]: 0; Plant response rating, Ducksalad (Flood) [17]: 0; Plant response rating, Rice (Flood) (rice (Oryza sativa)): 0; Plant response rating, Barnyardgrass (Flood) [18]: 0
CO/N=C(/c1cccc(Br)c1)c1c(O)c(C)nn(C)c1=O [Compound 234] | 0 | 0 | 40 | 80 | 10 | 0 | 10 | 30 | 50 | 70 | 10 | 30 | 10 | 30 | 0 | 0 | 30 | 70 | 80 | 90 | Ragweed plant response rating (0 to 100 scale) ([10]; 31 g ai/ha): 10; Ragweed plant response rating (0 to 100 scale) ([10]; 125 g ai/ha): 40; Pigweed plant response rating (0 to 100 scale) ([11]; 31 g ai/ha): 0; Pigweed plant response rating (0 to 100 scale) ([11]; 125 g ai/ha): 0; Ryegrass, Italian plant response rating (0 to 100 scale) ([12]; 31 g ai/ha): 40; Ryegrass, Italian plant response rating (0 to 100 scale) ([12]; 125 g ai/ha): 90; Barnyardgrass plant response rating (0 to 100 scale) ([13]; 31 g ai/ha): 0; Barnyardgrass plant response rating (0 to 100 scale) ([13]; 125 g ai/ha): 0; Foxtail, Giant plant response rating (0 to 100 scale) ([14]; 31 g ai/ha): 0; Foxtail, Giant plant response rating (0 to 100 scale) ([14]; 125 g ai/ha): 20; Kochia plant response rating (0 to 100 scale) (kochia (Bassia scoparia) [15]; 31 g ai/ha): 0; Kochia plant response rating (0 to 100 scale) (kochia (Bassia scoparia) [15]; 125 g ai/ha): 0; Plant response rating, Sedge, Umbrella (Flood) [16]: 0; Plant response rating, Ducksalad (Flood) [17]: 0; Plant response rating, Rice (Flood) (rice (Oryza sativa)): 0; Plant response rating, Barnyardgrass (Flood) [18]: 0
CO/N=C(\c1cccc(Br)c1)c1c(O)c(C)nn(C)c1=O [Compound 239] | 0 | 0 | 50 | 70 | 0 | 0 | 20 | 60 | 50 | 60 | 10 | 30 | 0 | 20 | 0 | 0 | 40 | 60 | 70 | 90 | Ragweed plant response rating (0 to 100 scale) ([10]; 31 g ai/ha): 10; Ragweed plant response rating (0 to 100 scale) ([10]; 125 g ai/ha): 50; Pigweed plant response rating (0 to 100 scale) ([11]; 31 g ai/ha): 0; Pigweed plant response rating (0 to 100 scale) ([11]; 125 g ai/ha): 10; Ryegrass, Italian plant response rating (0 to 100 scale) ([12]; 31 g ai/ha): 10; Ryegrass, Italian plant response rating (0 to 100 scale) ([12]; 125 g ai/ha): 50; Barnyardgrass plant response rating (0 to 100 scale) ([13]; 31 g ai/ha): 0; Barnyardgrass plant response rating (0 to 100 scale) ([13]; 125 g ai/ha): 0; Foxtail, Giant plant response rating (0 to 100 scale) ([14]; 31 g ai/ha): 0; Foxtail, Giant plant response rating (0 to 100 scale) ([14]; 125 g ai/ha): 10; Kochia plant response rating (0 to 100 scale) (kochia (Bassia scoparia) [15]; 31 g ai/ha): 0; Kochia plant response rating (0 to 100 scale) (kochia (Bassia scoparia) [15]; 125 g ai/ha): 10; Plant response rating, Sedge, Umbrella (Flood) [16]: 0; Plant response rating, Ducksalad (Flood) [17]: 0; Plant response rating, Rice (Flood) (rice (Oryza sativa)): 0; Plant response rating, Barnyardgrass (Flood) [18]: 0
